Each molecule was assayed against T1, 5-HT1AR (serotonin 1A receptor) (Homo sapiens, UniProt P08908) (assay: G protein nanoBRET).
T1 sequence (P08908 1-422): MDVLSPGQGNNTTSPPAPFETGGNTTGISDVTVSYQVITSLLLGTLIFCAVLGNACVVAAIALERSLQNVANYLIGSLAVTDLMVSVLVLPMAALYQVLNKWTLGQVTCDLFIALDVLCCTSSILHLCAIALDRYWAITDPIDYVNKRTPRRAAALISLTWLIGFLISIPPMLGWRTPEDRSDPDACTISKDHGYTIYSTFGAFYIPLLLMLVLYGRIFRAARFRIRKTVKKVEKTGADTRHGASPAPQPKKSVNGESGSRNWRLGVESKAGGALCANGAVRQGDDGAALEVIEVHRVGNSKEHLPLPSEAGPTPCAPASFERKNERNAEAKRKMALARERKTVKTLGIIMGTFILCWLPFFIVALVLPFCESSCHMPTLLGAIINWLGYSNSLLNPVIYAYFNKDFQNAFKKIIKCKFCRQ
Format: cell-based

Point of comparison: `Cc1cnc(CNCC2(F)CCN(C(=O)c3ccc(F)c(Cl)c3)CC2)nc1` [F-15599], EC50 537 nM. Against it:
- O=c1[nH]c2ccccc2n1CCN1CCN(c2cccc(C(F)(F)F)c2)CC1 [Flibanserin] — 3.2-fold lower, 170 nM
- COc1cc2c3c(c1OC)-c1ccccc1C[C@H]3N(C)CC2 [Nuciferine] — 31-fold higher, 16600 nM

From paper PMC10586511 (Molecular Pharmacology, 2023)
